# Data reported in patent publication US20260285850A1, “SUBSTITUTED OXAZOLIDINONES AND IMIDAZOLINONES AS HERBICIDES” (FMC CORPORATION, priority 2023, published 2026).
# Legend:
# Format in all cases: in vivo
# [1] = tested on: green foxtail (Setaria viridis); assay: Test A postemergence application, visual injury rating 0-100
# Method in brief: (§1)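 Plants were grown in a loam soil-sand blend and treated with test chemical in a non-phytotoxic solvent mixture containing surfactant, either sprayed on soil preemergence or applied postemergence to 2-10 cm plants. After 10 days in a greenhouse, injury was scored visually against untreated controls, 0 meaning no effect and 100 complete control.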
# [2] = tested on: soybean (Glycine max); assay: as above
# Method in brief: as §1
# [3] = tested on: kochia (Bassia scoparia); assay: as above
# Method in brief: as §1
# [4] = tested on: blackgrass (Alopecurus myosuroides); assay: as above
# Method in brief: as §1
# [5] = tested on: wheat (Triticum aestivum); assay: as above
# Method in brief: as §1
# [6] = tested on: ragweed (common ragweed, Ambrosia artemisiifolia); assay: as above
# Method in brief: as §1
# [7] = tested on: palmer (palmer amaranth, palmer pigweed, Amaranthus palmeri); assay: as above
# Method in brief: as §1
# [8] = tested on: ryegrass, Italian (italian ryegrass, Lolium multiflorum); assay: as above
# Method in brief: as §1
# [9] = tested on: barnyardgrass (Echinochloa crus-galli); assay: as above
# Method in brief: as §1
# [10] = tested on: oat, wild (wild oat, Avena fatua); assay: as above
# Method in brief: as §1
# [11] = tested on: corn (Zea mays); assay: as above
# Method in brief: as §1
# [12] = tested on: horseweed (Erigeron canadensis); assay: as above
# Method in brief: as §1
# [13] = tested on: green foxtail (Setaria viridis); assay: Test A preemergence soil spray, visual injury rating 0-100; conditions: 10 days
# Method in brief: as §1
# [14] = tested on: soybean (Glycine max); assay: as above; conditions: 10 days
# Method in brief: as §1
# [15] = tested on: kochia (Bassia scoparia); assay: as above; conditions: 10 days
# Method in brief: as §1
# [16] = tested on: blackgrass (Alopecurus myosuroides); assay: as above; conditions: 10 days
# Method in brief: as §1
# [17] = tested on: wheat (Triticum aestivum); assay: as above; conditions: 10 days
# Method in brief: as §1
# [18] = tested on: ragweed (common ragweed, Ambrosia artemisiifolia); assay: as above; conditions: 10 days
# Method in brief: as §1
# [19] = tested on: palmer (palmer amaranth, palmer pigweed, Amaranthus palmeri); assay: as above; conditions: 10 days
# Method in brief: as §1
# [20] = tested on: ryegrass, Italian (italian ryegrass, Lolium multiflorum); assay: as above; conditions: 10 days
# Method in brief: as §1
# [21] = tested on: barnyardgrass (Echinochloa crus-galli); assay: as above; conditions: 10 days
# Method in brief: as §1
# [22] = tested on: oat, wild (wild oat, Avena fatua); assay: as above; conditions: 10 days
# Method in brief: as §1
# [23] = tested on: corn (Zea mays); assay: as above; conditions: 10 days
# Method in brief: as §1
# [24] = tested on: barnyardgrass (Echinochloa crusgalli); assay: Test B flooded paddy test, visual plant response rating 0-100; conditions: 250 g ai/ha, Flood, applied to paddy water, evaluated after 13 days
# Method in brief: (§2)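 Plants were grown to the 2-leaf stage, then pots were flooded to 3 cm above the soil and test compounds were applied directly into the paddy water. Water depth was held there throughout; after 13 days in a greenhouse, injury was scored visually against untreated controls.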
# [25] = tested on: rice (Oryza sativa); assay: as above; conditions: 250 g ai/ha, Flood, applied to paddy water, evaluated after 13 days
# Method in brief: as §2
# [26] = tested on: sedge, umbrella (small-flower umbrella sedge, Cyperus difformis); assay: as above; conditions: 250 g ai/ha, Flood, applied to paddy water, evaluated after 13 days
# Method in brief: as §2
# [27] = tested on: ducksalad (Heteranthera limosa); assay: as above; conditions: 250 g ai/ha, Flood, applied to paddy water, evaluated after 13 days
# Method in brief: as §2
# [28] = 62 g ai/ha, postemergence, 10 days, 0 = no effect, 100 = complete control
# [29] = Postemergence, 16 g ai/ha, greenhouse 10 days, 0 no effect, 100 complete control
# [30] = 62 g ai/ha, 0 = no effect, 100 = complete control
structure (smiles),measurement,setting,value
CCOC(=O)C1=CCC(NC(=O)C2(C)CN(c3cc(Cl)cc(Cl)c3)C(=O)O2)C1 (centres unmarked) [Compound 114],"Foxtail, Green plant response rating (0-100)",[1]; [28],90
same,"Foxtail, Green plant response rating (0 to 100 scale)",[1]; [29],80
same,Soybean plant response rating (0-100),[2]; [28],70
same,Soybean plant response rating (0 to 100 scale),[2]; [29],50
same,Kochia plant response rating (0-100),[3]; [28],90
same,Kochia plant response rating (0 to 100 scale),[3]; [29],80
same,Blackgrass plant response rating (0-100),[4]; [28],80
same,Blackgrass plant response rating (0 to 100 scale),[4]; [29],50
same,Wheat plant response rating (0-100),[5]; [28],90
same,Wheat plant response rating (0 to 100 scale),[5]; [29],80
same,Ragweed plant response rating (0-100),[6]; [28],50
same,Ragweed plant response rating (0 to 100 scale),[6]; [29],10
same,"Pigweed, Palmer plant response rating (0-100)",[7]; [28],90
same,"Pigweed, Palmer plant response rating (0 to 100 scale)",[7]; [29],90
same,"Ryegrass, Italian plant response rating (0-100)",[8]; [28],80
same,"Ryegrass, Italian plant response rating (0 to 100 scale)",[8]; [29],50
same,Barnyardgrass plant response rating (0-100),[9]; [28],100
same,Barnyardgrass plant response rating (0 to 100 scale),[9]; [29],100
same,"Oat, Wild plant response rating (0-100)",[10]; [28],40
same,"Oat, Wild plant response rating (0 to 100 scale)",[10]; [29],30
same,Corn plant response rating (0-100),[11]; [28],100
same,Corn plant response rating (0 to 100 scale),[11]; [29],100
same,Horseweed plant response rating (0-100),[12]; [28],70
same,Horseweed plant response rating (0 to 100 scale),[12]; [29],20
same,"Foxtail, Green plant response rating","[13]; 16 g ai/ha, 0 to 100 scale",0
same,"Foxtail, Green plant response rating (0-100)",[13]; [30],90
same,Soybean plant response rating,"[14]; 16 g ai/ha, 0 to 100 scale",0
same,Soybean plant response rating (0-100),[14]; [30],10
same,Kochia plant response rating,"[15]; 16 g ai/ha, 0 to 100 scale",0
same,Kochia plant response rating (0-100),[15]; [30],0
same,Blackgrass plant response rating,"[16]; 16 g ai/ha, 0 to 100 scale",0
same,Blackgrass plant response rating (0-100),[16]; [30],20
same,Wheat plant response rating,"[17]; 16 g ai/ha, 0 to 100 scale",0
same,Wheat plant response rating (0-100),[17]; [30],40
same,Ragweed plant response rating,"[18]; 16 g ai/ha, 0 to 100 scale",0
same,Ragweed plant response rating (0-100),[18]; [30],0
same,"Pigweed, Palmer plant response rating","[19]; 16 g ai/ha, 0 to 100 scale",40
same,"Pigweed, Palmer plant response rating (0-100)",[19]; [30],90
same,"Ryegrass, Italian plant response rating","[20]; 16 g ai/ha, 0 to 100 scale",0
same,"Ryegrass, Italian plant response rating (0-100)",[20]; [30],80
same,Barnyardgrass plant response rating,"[21]; 16 g ai/ha, 0 to 100 scale",0
same,Barnyardgrass plant response rating (0-100),[21]; [30],90
same,"Oat, Wild plant response rating","[22]; 16 g ai/ha, 0 to 100 scale",0
same,"Oat, Wild plant response rating (0-100)",[22]; [30],20
same,Corn plant response rating,"[23]; 16 g ai/ha, 0 to 100 scale",0
same,Corn plant response rating (0-100),[23]; [30],30
same,"Plant response rating, Barnyardgrass (0 to 100 scale, 0 is no effect and 100 is complete control)",[24],90
same,"Plant response rating, Rice (0 to 100 scale, 0 is no effect and 100 is complete control)",[25],55
same,"Plant response rating, Sedge, Umbrella (0 to 100 scale, 0 is no effect and 100 is complete control)",[26],98
same,"Plant response rating, Ducksalad (0 to 100 scale, 0 is no effect and 100 is complete control)",[27],80
